These are literature values, as cited in US20060079683A1, “Arylthiobenzylpiperidine derivatives” (priority 2004, published 2006).

Settings in all cases: B. Borowsky, et al., Nature Medicine, 2002
The target in data set [1] is T1, MCH1 receptor (Rattus norvegicus, UniProt P97639).
T1 construct: host or cells: living rat, endogenous receptor

Data set [2] has as its target T1, MCH1 receptor. This is another data set of the same source.
Data set [3] addresses T2, MCH1 receptor (Cavia porcellus, UniProt H0VKT7).
T2 construct: host or cells: living guinea pig, endogenous receptor

T1 sequence (P97639 whole entry): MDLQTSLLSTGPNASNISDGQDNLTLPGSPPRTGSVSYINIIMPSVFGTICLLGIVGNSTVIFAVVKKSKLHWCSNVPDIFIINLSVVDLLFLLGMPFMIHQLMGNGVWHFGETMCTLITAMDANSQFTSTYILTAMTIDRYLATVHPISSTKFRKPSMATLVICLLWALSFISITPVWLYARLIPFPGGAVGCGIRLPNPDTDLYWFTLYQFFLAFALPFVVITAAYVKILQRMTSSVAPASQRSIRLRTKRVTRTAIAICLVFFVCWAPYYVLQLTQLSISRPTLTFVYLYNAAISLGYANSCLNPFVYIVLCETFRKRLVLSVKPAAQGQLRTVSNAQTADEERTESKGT
T2 sequence (H0VKT7 1-355): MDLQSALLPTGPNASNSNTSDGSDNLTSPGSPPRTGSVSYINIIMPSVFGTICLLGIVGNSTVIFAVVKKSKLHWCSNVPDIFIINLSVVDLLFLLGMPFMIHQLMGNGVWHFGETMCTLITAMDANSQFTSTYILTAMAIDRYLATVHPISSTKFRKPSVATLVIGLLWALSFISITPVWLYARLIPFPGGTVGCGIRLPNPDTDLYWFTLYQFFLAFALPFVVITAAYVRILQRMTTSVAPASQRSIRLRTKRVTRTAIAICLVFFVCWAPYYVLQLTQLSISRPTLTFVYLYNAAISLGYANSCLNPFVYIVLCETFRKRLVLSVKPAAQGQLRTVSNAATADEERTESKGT

For `COCC1=C(C(=O)OC)[C@H](c2ccc(F)c(F)c2)N(C(=O)NCCCN2CCC(c3cccc(NC(C)=O)c3)CC2)C(=O)N1` [SNAP-7941], the “profile in behavioral model of depression and/or anxiety: rat forced-swim” value in data set [1] was “profile similar to clinically used anti-depressants and anxiolytics”. The “profile in behavioral model of depression and/or anxiety: rat social interaction” value in data set [2] is “profile similar to clinically used anti-depressants and anxiolytics”. Moreover, the “profile in behavioral model of depression and/or anxiety: guinea pig maternal-separation vocalization” value in data set [3] is “profile similar to clinically used anti-depressants and anxiolytics”.
